This assay has as its target T1, human ADRA2B receptor (Homo sapiens, UniProt P18089).
T1 construct: expressed in transfected cells
T1 sequence (P18089 1-450): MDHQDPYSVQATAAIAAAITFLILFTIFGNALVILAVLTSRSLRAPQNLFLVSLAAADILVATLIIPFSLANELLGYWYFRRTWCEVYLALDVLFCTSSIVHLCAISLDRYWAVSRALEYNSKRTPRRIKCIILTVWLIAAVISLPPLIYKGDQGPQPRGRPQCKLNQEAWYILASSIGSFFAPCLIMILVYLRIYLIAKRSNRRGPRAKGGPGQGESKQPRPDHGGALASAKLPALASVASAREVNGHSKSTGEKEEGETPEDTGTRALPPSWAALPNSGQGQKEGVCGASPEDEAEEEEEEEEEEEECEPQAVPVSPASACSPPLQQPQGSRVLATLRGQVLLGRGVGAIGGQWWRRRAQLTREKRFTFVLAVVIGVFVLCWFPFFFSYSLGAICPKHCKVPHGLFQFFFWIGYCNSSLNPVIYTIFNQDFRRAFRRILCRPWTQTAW
The assay can be described thus: GTPγS agonist assay, ADRA2B receptor. The class given is biochemical. To be noted: read-out: GTPase - Human Alpha2B EC50. In a few lines: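 CHO-K1 membranes stably expressing human ADRA2B (5 μg protein) in 20 mM HEPES, 10 mM MgCl2, 200 mM NaCl with GDP, preincubated 10 min at room temperature with compound. Binding reaction 1 h at 37° C; bound label collected on GF/C filters, washed, read by scintillation counting.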

The structures appear in SMILES notation.

As usually defined, the EC50 is the concentration giving half of the maximal effect.

In the case of `Cc1cc(CC(c2c[nH]cn2)c2cccc(C)c2C)no1` (centres unmarked) [Compound 114, 3-[2-(4-imidazolyl)-2-(2,3-xylyl)ethyl]-5-methyl-isoxazole], the EC50 was less than 10 nM.

On to `COc1nccc(C[C@@H](c2cnc[nH]2)c2cccc(C)c2C)n1` [Compound 54, 4-[(2R)-2-(2,3-dimethylphenyl)-2-(1H-imidazol-4-yl)ethyl]-2-methoxy-pyrimidine], for which the EC50 fell in the range of 50 to 500 nM.

On to `Clc1ccc(C(Cc2cccnn2)c2c[nH]cn2)cc1` (centres unmarked) [Compound 217, 3-[2-(p-chlorophenyl)-2-(4-imidazolyl)ethyl] pyridazine], for which the EC50 is greater than 500 nM.

For the molecule `COc1cccc(C[C@H](c2cnc[nH]2)c2cccc(C)c2OC)n1` [Compound 9, 2-[(2S)-2-(1H-imidazol-4-yl)-2-(2-methoxy-3-methylphenyl)ethyl]-6-methoxypyridine], the EC50 was less than 10 nM.

Take `Cc1cccc(C(Cc2cnco2)c2c[nH]cn2)c1C` (centres unmarked) [Compound 134, 5-[2-(4-imidazolyl)-2-(2,3-xylyl)ethyl]-1,3-oxazole]: the half-maximal effective concentration (EC50) is less than 10 nM.

Regarding `COc1cccc(C[C@H](c2c[nH]cn2)c2cccc3c2CCO3)n1` [Compound 18, 2-[(2S)-2-(2,3-dihydro-1-benzofuran-4-yl)-2-(1H-imidazol-4-yl)ethyl]-6-methoxypyridine], the EC50 was greater than 500 nM.

As for `Cc1cccc(C(Cc2ccc(N3CCCC3)nc2)c2c[nH]cn2)c1C` (centres unmarked) [Compound 309, 4-{2-[6-(1-pyrrolidinyl)-3-pyridyl]-1-(2,3-xylyl)ethyl}imidazole], the EC50 fell in the range of 10 to 50 nM.

With `COc1cncc(CC(c2cnc[nH]2)c2cccc(C)c2C)n1` (centres unmarked) [Compound 89, 2-[2-(2,3-dimethylphenyl)-2-(1H-imidazol-4-yl)ethyl]-6-methoxy-pyrazine], the EC50 is less than 10 nM.

As to `Clc1cccc(C(Cc2cccnn2)c2c[nH]cn2)c1Cl` (centres unmarked) [Compound 170, 3-[2-(2,3-dichlorophenyl)-2-(4-imidazolyl)ethyl] pyridazine], the EC50 was 50 to 500 nM.

In the case of `COc1cccc(C[C@H](c2c[nH]cn2)c2cccc(C)c2C)n1` [Compound 3, 2-[(2S)-2-(2,3-dimethylphenyl)-2-(1H-imidazol-4-yl)ethyl]-6-methoxypyridine], the EC50 is less than 10 nM.

Turning to `COc1ccc(CC(c2c[nH]cn2)c2cccc(C)c2C)nn1` (centres unmarked) [Compound 133, 3-[2-(4-imidazolyl)-2-(2,3-xylyl)ethyl]-6-methoxy-pyridazine], the EC50 fell in the range of 10 to 50 nM.

For `Cc1cccc(C(Cc2ncc(F)cn2)c2c[nH]cn2)c1C` (centres unmarked) [Compound 112, 5-fluoro-2-[2-(4-imidazolyl)-2-(2,3-xylyl)ethyl] pyrimidine], the EC50 was 50 to 500 nM.

Consider `COc1nccc(CC(c2c[nH]cn2)c2cccc3ncoc23)n1` (centres unmarked) [Compound 174, 7-[1-(4-imidazolyl)-2-(2-methoxy-4-pyrimidinyl)ethyl]-1,3-benzoxazole], for which the EC50 was in the range of 50 to 500 nM.

As for `COc1nccc(CC(c2ccc(OC(F)(F)F)cc2)c2c[nH]cn2)n1` (centres unmarked) [Compound 203, 4-[2-(4-imidazolyl)-2 (p-trifluoromethoxyphenyl)ethyl]-2-methoxypyrimidine], the half-maximal effective concentration (EC50) was greater than 500 nM.

For the molecule `FC(F)(F)Oc1cccc([C@@H](Cc2ccccn2)c2cnc[nH]2)c1` [Compound 36, 2-[(2R)-2-(1H-imidazol-4-yl)-2-[3-(trifluoromethoxy)phenyl]ethyl] pyridine], the EC50 was in the range of 10 to 50 nM.

Regarding `Cc1cccc([C@H](Cc2cccnc2)c2cnc[nH]2)c1C` [Compound 58, 3-[(2S)-2-(2,3-dimethylphenyl)-2-(1H-imidazol-4-yl)ethyl] pyridine], the EC50 lay in the range of 50 to 500 nM.

Turning to `COc1c(C)cccc1[C@@H](Cc1ccccn1)c1cnc[nH]1` [Compound 34, 2-[(2R)-2-(1H-imidazol-4-yl)-2-(2-methoxy-3-methylphenyl)ethyl]pyridine], the half-maximal effective concentration (EC50) was greater than 500 nM.

The values are drawn from US20260042769A1, “TRIARYL AGONISTS OF ALPHA-2 ADRENERGIC RECEPTORS” (ALCEPTOR THERAPEUTICS, INC., priority 2023, published 2026).
